Tested on: MHC class I molecules of T1 cells (human lymphoma cell line 174×CEM.)
Experiment: Effect on expression of MHC class I from T1 cells (flow cytometry, MFI)
Assay type: cell-based
Conditions: 3 days culture
Method in brief: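 EC20 is the compound level that lowers MHC class I MFI by 20% relative to compound-free cultures. Read-out was flow cytometry after FITC W6/32 staining.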

| Compound | EC20 (concentration necessary for suppressing 20% of the expression level of MHC class I molecules) |
| --- | --- |
| CC(C)CCC[C@H](C)NC(=O)Nc1nc2nccc(-c3cccs3)n2n1 [Example 246] | 50 nM |
| COc1ccc(-c2ccnc3nc(NC(=O)NCc4cc(OC)c(OC)c(OC)c4)nn23)cc1 [Example 247] | 37 nM |
| COc1cccc([C@H](C)NC(=O)Nc2nc3nccc(-c4ccc(OCCCN5CCOCC5)cc4)n3n2)c1 [Example 248] | 14 nM |
| COc1cccc([C@H](C)NC(=O)Nc2nc3nccc(-c4cccc(OCCCN5CCOCC5)c4)n3n2)c1 [Example 249] | 70 nM |
| COCCOc1ccc(-c2ccnc3nc(NC(=O)N[C@@H](C)c4cccc(OC)c4)nn23)cc1OCCOC [Example 251] | 60 nM |
| COCCOc1ccc(-c2ccnc3nc(NC(=O)N[C@@H](C)CCCC(C)C)nn23)cc1OCCOC [Example 252] | 50 nM |
| COc1cccc([C@H](C)NC(=O)Nc2nc3nccc(-c4cccc(OCC(=O)N5CCOCC5)c4)n3n2)c1 [Example 253] | 270 nM |
| CC(C)CCC[C@H](C)NC(=O)Nc1nc2nccc(-c3ccc(OCc4ccccc4)cc3)n2n1 [Example 254] | 230 nM |
| CC(C)CCC[C@H](C)NC(=O)Nc1nc2nccc(-c3ccc(O)cc3)n2n1 [Example 255, (S)-1-(1,5-dimethylhexyl)-3-[7-(4-hydroxyphenyl)-[1,2,4]triazolo[1,5-a]pyrimidin-2-yl]urea] | 5.6 nM |
| CC(C)CCC[C@H](C)NC(=O)Nc1nc2nccc(-c3cccc(OCc4ccccc4)c3)n2n1 [Example 256] | 550 nM |
| CC(C)CCC[C@H](C)NC(=O)Nc1nc2nccc(-c3cccc(O)c3)n2n1 [Example 257] | 30 nM |
| CC(C)CCC[C@H](C)NC(=O)Nc1nc2nccc(-c3ccc(OCCN4CCOCC4)cc3)n2n1.Cl [Example 258, (S)-1-(1,5-dimethylhexyl)-3-{7-[4-(2-morpholin-4-ylethoxy)phenyl]-[1,2,4]triazolo[1,5-a]pyrimidin-2-yl}urea hydrochloride] | 8.7 nM |
| CC(C)CCC[C@H](C)NC(=O)Nc1nc2nccc(-c3cccc(OCCN4CCOCC4)c3)n2n1 [Example 259] | 60 nM |
| CC(C)CCC[C@H](C)NC(=O)Nc1nc2nccc(-c3cccc(OCC4CCCO4)c3)n2n1 (stereo partly shown) [Example 260] | 60 nM |
| CC(C)CCC[C@H](C)NC(=O)Nc1nc2nccc(-c3cccc(OCc4cccnc4)c3)n2n1 [Example 261] | 80 nM |
| COCCOc1ccc(-c2ccnc3nc(NC(=O)N[C@@H](C)CCCC(C)C)nn23)cc1 [Example 262, (S)-1-(1,5-dimethylhexyl)-3-{7-[4-(2-methoxyethoxy)phenyl]-[1,2,4]triazolo[1,5-a]pyrimidin-2-yl}urea] | 30 nM |
| COCCOCCOCCOc1ccc(-c2ccnc3nc(NC(=O)N[C@@H](C)CCCC(C)C)nn23)cc1 [Example 263] | 7.9 nM |
| COCCOc1cccc(-c2ccnc3nc(NC(=O)N[C@@H](C)CCCC(C)C)nn23)c1 [Example 264] | 70 nM |
| COCCOCCOCCOc1cccc(-c2ccnc3nc(NC(=O)N[C@@H](C)CCCC(C)C)nn23)c1 [Example 265] | 110 nM |
| C[C@H](NC(=O)Nc1nc2nccc(-c3ccc(O)cc3)n2n1)c1cccc(O)c1 [Example 266] | 200 nM |
| C[C@H](NC(=O)Nc1nc2nccc(-c3cccc(O)c3)n2n1)c1cccc(O)c1 [Example 267] | 550 nM |
| COc1cccc([C@H](C)NC(=O)Nc2nc3nccc(-c4ccc(OCCN5CCOCC5)cc4)n3n2)c1 [Example 269] | 15 nM |
| CC(CCCC(C)(C)O)NC(=O)Nc1nc2nccc(-c3cccs3)n2n1 (stereo not shown) [Example 272, 1-(5-hydroxy-1,5-dimethylhexyl)-3-(7-thiophen-2-yl[1,2,4]triazolo[1,5-a]pyrimidin-2-yl)urea] | 69 nM |
| COc1ccc(-c2ccnc3nc(NC(=O)NC(C)CCC(=O)N4CCOCC4)nn23)cc1 (stereo not shown) [Example 273] | 600 nM |
| COc1ccc(-c2ccnc3nc(NC(=O)NC(C)CCCC(=O)N4CCOCC4)nn23)cc1 (stereo not shown) [Example 275] | 540 nM |
| CCOCCCC(C)NC(=O)Nc1nc2nccc(-c3ccc(OC)cc3)n2n1 (stereo not shown) [Example 276] | 120 nM |

| Compound | EC20 (concentration necessary for suppressing 20% of the expression level of MHC class I molecules) |
| --- | --- |
| COc1ccc(-c2ccnc3nc(NC(=O)NC(C)CCN(C)C(=O)OC(C)(C)C)nn23)cc1 (stereo not shown) [Example 277] | 180 nM |
| CCOCCC(C)NC(=O)Nc1nc2nccc(-c3cccs3)n2n1 (stereo not shown) [Example 281] | 120 nM |
| COc1ccc(-c2ccnc3nc(NC(=O)NC(C)CCCN(C)C(=O)OC(C)(C)C)nn23)cc1 (stereo not shown) [Example 282] | 58 nM |
| COc1ccc(-c2ccnc3nc(NC(=O)NC(C)CCCN(C)C(C)=O)nn23)cc1 (stereo not shown) [Example 283] | 200 nM |
| CCCC(C)NC(=O)Nc1nc2nccc(-c3cccs3)n2n1 (stereo not shown) [Example 284] | 190 nM |
| CCCC(C)NC(=O)Nc1nc2nccc(-c3ccc(OC)cc3)n2n1 (stereo not shown) [Example 285] | 320 nM |
| CCCC(C)NC(=O)Nc1nc2nccc(-c3ccc(OCCOC)cc3)n2n1 (stereo not shown) [Example 286] | 160 nM |
| CC(CCCC(=O)N1CCOCC1)NC(=O)Nc1nc2nccc(-c3cccs3)n2n1 (stereo not shown) [Example 287] | 770 nM |
| COC(C)(C)CCC[C@H](C)NC(=O)Nc1nc2nccc(-c3cccs3)n2n1 [Example 288] | 20 nM |
| COCC/C=C/[C@H](C)NC(=O)Nc1nc2nccc(-c3ccc(OC)cc3)n2n1 [Example 289] | 110 nM |
| COCC/C=C/[C@H](C)NC(=O)Nc1nc2nccc(-c3cccs3)n2n1 [Example 290] | 340 nM |
| COc1cccc([C@H](C)NC(=O)Nc2nc3nccc(-c4ccc(OC(=O)N5CCC(N6CCCCC6)CC5)cc4)n3n2)c1 [Example 293] | 90 nM |
| COc1cc(C(C)NC(=O)Nc2nc3nccc(-c4cccs4)n3n2)cc(OC)c1OC (stereo not shown) [Example 294] | 70 nM |
| CC(NC(=O)Nc1nc2nccc(-c3cccs3)n2n1)c1ccc2c(c1)OCO2 (stereo not shown) [Example 295] | 790 nM |
| COc1ccc(-c2ccnc3nc(NC(=O)NC(C)c4cc(OC)c(OC)c(OC)c4)nn23)cc1 (stereo not shown) [Example 296] | 70 nM |
| COc1ccc(-c2ccnc3nc(NC(=O)NC(C)c4ccc5c(c4)OCO5)nn23)cc1 (stereo not shown) [Example 297] | 110 nM |
| COc1ccc(-c2ccnc3nc(NC(=O)NC(C)CCN(C)C(=O)C(C)(C)OC(C)=O)nn23)cc1 (stereo not shown) [Example 298] | 80 nM |
| CC(=O)OC(C)(C)C(=O)N(C)CCC(C)NC(=O)Nc1nc2nccc(-c3cccs3)n2n1 (stereo not shown) [Example 299] | 430 nM |
| CC(NC(=O)Nc1nc2nccc(-c3ccc4c(c3)OCO4)n2n1)c1ccc2c(c1)OCO2 (stereo not shown) [Example 301] | 640 nM |
| COc1cc(C(C)NC(=O)Nc2nc3nccc(-c4ccc5c(c4)OCO5)n3n2)cc(OC)c1OC (stereo not shown) [Example 302, 1-[7-(3,4-methylenedioxyphenyl)-[1,2,4]triazolo[1,5-a]pyrimidin-2-yl]-3-[1-(3,4,5-trimethoxyphenyl)ethyl]urea] | 180 nM |
| COc1cccc([C@H](C)NC(=O)Nc2nc3nccc(-c4cccc(Cl)c4)n3n2)c1 [Example 303] | 680 nM |
| COc1cc(C(C)NC(=O)Nc2nc3nccc(-c4cccc(Cl)c4)n3n2)cc(OC)c1OC (stereo not shown) [Example 305] | 520 nM |
| CC(NC(=O)Nc1nc2nccc(-c3cccc(OCc4cccnc4)c3)n2n1)c1ccc2c(c1)OCO2 (stereo not shown) [Example 306] | 230 nM |
| COc1cc(C(C)NC(=O)Nc2nc3nccc(-c4cccc(OCc5cccnc5)c4)n3n2)cc(OC)c1OC (stereo not shown) [Example 307] | 140 nM |
| COc1cccc([C@H](C)NC(=O)Nc2nc3nccc(-c4cc(OC)c(OC)c(OC)c4)n3n2)c1 [Example 308] | 760 nM |
| CC(CCCC(C)(C)O)NC(=O)Nc1nc2nccc(-c3cccc(OCc4cccnc4)c3)n2n1 (stereo not shown) [Example 313, 1-(5-hydroxy-1,5-dimethylhexyl)-3-{7-[3-(pyridin-3-ylmethoxy)phenyl]-[1,2,4]triazolo[1,5-a]pyrimidin-2-yl}urea] | 290 nM |

Reference: patent US7598244B2, “[1,2,4]triazolo[1,5,a]pyrimidin-2-ylurea derivative and use thereof” (Nippon Kayaku Kabushiki Kaisha, priority 2003, dated 2009)
